Measurements published in patent publication US20250042889A1, “3CLPRO PROTEASE INHIBITOR” (SHANGHAI QILU PHARMACEUTICAL RESEARCH AND DEVELOPMENT …, priority 2021, published 2025).

Biological target: SARS-COV-2 3CLpro/Mpro protease (Severe acute respiratory syndrome coronavirus 2 (2019-nCoV) (SARS-CoV-2), UniProt P0DTD1)
Assay: Inhibitory effect on SARS-COV-2 3CLpro/Mpro protease by fluorescence resonance energy transfer
Assay type: biochemical
Conditions: activity intervals A-D, read-out: IC50 (nM), Inhibition on SARS-CoV-2 3CLpro/Mpro protease

| SMILES | IC50 |
| --- | --- |
| O=C(c1cc(Br)cc([N+](=O)[O-])c1N[C@@H]1CCCN(C(=O)c2cncc3ccccc23)C1)N1CCOCC1 [Example 38] | < 10 nM |
| O=C(c1cc(Br)cc([N+](=O)[O-])c1N[C@@H]1CCCN(C(=O)c2cncc3ccccc23)C1)N1CCCC1 [Example 39] | < 10 nM |
| O=C(c1cc(Br)cc([N+](=O)[O-])c1N[C@@H]1CCN(C(=O)c2cncc3ccccc23)C1)N1CCCC1 [Example 40] | 10 to 50 nM |
| N#Cc1cncc(C(=O)N2CCC[C@@H](Nc3c(C(=O)N4CCCCC4)cc(Br)cc3[N+](=O)[O-])C2)c1 [Example 41] | 10 to 50 nM |
| Nc1cncc(C(=O)N2CCC[C@@H](Nc3c(C(=O)N4CCCCC4)cc(Br)cc3[N+](=O)[O-])C2)c1 [Example 42] | 10 to 50 nM |
| Cc1cncc(C(=O)N2CCC[C@@H](Nc3c(C(=O)N4CCCCC4)cc(Br)cc3[N+](=O)[O-])C2)c1 [Example 43] | 10 to 50 nM |
| O=C(c1cncc(Br)c1)N1CCC[C@@H](Nc2c(C(=O)N3CC4CC4C3)cc(Br)cc2[N+](=O)[O-])C1 (some centres unmarked) [Example 44] | < 10 nM |
| O=C(c1cncc(C2CC2)c1)N1CCC[C@@H](Nc2c(C(=O)N3CCCCC3)cc(Br)cc2[N+](=O)[O-])C1 [Example 45] | 10 to 50 nM |
| Cc1c(Br)cncc1C(=O)N1CCC[C@@H](Nc2c(C(=O)N3CCCCC3)cc(Br)cc2[N+](=O)[O-])C1 [Example 46] | 10 to 50 nM |
| O=C(c1cncc(Br)c1)N1CC[C@@H](Nc2c(C(=O)N3CCCCC3)cc(Br)cc2C(F)(F)F)C1 [Example 47] | 10 to 50 nM |
| O=C(c1cc(Br)cc(C(F)(F)F)c1N[C@@H]1CCN(C(=O)c2cncc3ccccc23)C1)N1CCCCC1 [Example 48] | 10 to 50 nM |
| O=C(c1cncc(Br)c1)N1CCC[C@@H](Nc2c(C(=O)N3CCC(F)(F)CC3)cc(Br)cc2C(F)(F)F)C1 [Example 49] | 10 to 50 nM |
| O=C(c1cncc(O)c1)N1CCC[C@@H](Nc2c(C(=O)N3CCC(F)(F)CC3)cc(Br)cc2[N+](=O)[O-])C1 [Example 50] | 50 to 100 nM |
| O=C(c1cc(Br)cc([N+](=O)[O-])c1N[C@@H]1CCN(C(=O)c2cncc3cc(Cl)ccc23)C1)N1CC2CC2C1 (some centres unmarked) [Example 51] | 10 to 50 nM |
| O=C(c1cc(=O)[nH]c(=O)[nH]1)N1CCC[C@@H](Nc2c(C(=O)N3CCC(F)(F)CC3)cc(Br)cc2[N+](=O)[O-])C1 [Example 53] | 50 to 100 nM |
| O=C(c1cc(Br)cc([N+](=O)[O-])c1N[C@@H]1CCCN(C(=O)c2cc(=O)[nH]c3ccccc23)C1)N1CCC(F)(F)CC1 [Example 54] | 10 to 50 nM |
| CNc1cncc(C(=O)N2CCC[C@@H](Nc3c(C(=O)N4CCO[C@H](C(F)F)C4)cc(Br)cc3[N+](=O)[O-])C2)c1 [Example 55] | 10 to 50 nM |
| O=C(c1cc(Br)cc([N+](=O)[O-])c1N[C@@H]1CCCN(C(=O)c2cnnc3ccccc23)C1)N1CCCCC1 [Example 56] | 10 to 50 nM |
| N#Cc1cc(Cl)cc(C(=O)N2CCCCC2)c1N[C@@H]1CCCN(C(=O)c2cncc3ccccc23)C1 [Example 59] | 10 to 50 nM |
| O=C(c1cncnc1)N1CCC[C@@H](Nc2c(C(=O)N3CCCCC3)cc(Br)cc2[N+](=O)[O-])C1 [Example 60] | 50 to 100 nM |
| O=C(c1cncc(OC(F)F)c1)N1CCC[C@@H](Nc2c(C(=O)N3CCCCC3)cc(Br)cc2[N+](=O)[O-])C1 [Example 61] | 50 to 100 nM |
| O=C(c1cncc(Br)c1)N1CC[C@@H](Nc2c(C(=O)N3CCCCC3)cc(Br)cc2[N+](=O)[O-])C1 [Example 64] | 10 to 50 nM |
| O=C(c1cncc(Br)c1)N1CCC[C@@H](Nc2c(C(=O)N3CCCC3)cc(Br)cc2[N+](=O)[O-])C1 [Example 65] | 10 to 50 nM |
| O=C(c1cncc(Br)c1)N1CCC[C@@H](Nc2c(C(=O)N3CCCCC3)cc(Br)cc2C(F)(F)F)C1 [Example 66] | 10 to 50 nM |
| O=C(c1cc(Br)cc(C(F)(F)F)c1N[C@@H]1CCCN(C(=O)c2cncc3ccccc23)C1)N1CCCCC1 [Example 67] | 10 to 50 nM |
| O=C(c1cncc(Br)c1)N1CC[C@@H](Nc2c(C(=O)N3CCCCC3)cc(Br)cc2C(F)(F)F)C1 [Example 68] | 50 to 100 nM |
